Values after ≈ are worked out from the molar mass of the structure shown. Like-named read-outs stand apart in the source and are kept apart here. Blank lines part the entries; values can stand above or below the compound they belong to.
Experiments:
[1] = Aqueous solubility of progesterone in buffer, bile and lipolytic products; format: physicochemical; conditions: for solubility at 1 h / solubility at 2 h: pH 6.5, 37° C.; for solubility at 1 h: read-out: Progesterone solubility after 60 minutes; for solubility at 2 h: read-out: Progesterone solubility after 120 minutes
Experimental: The solubility of progesterone was determined as follows:
The following five aqueous media were each prepared at 37° C. in the pH-Stat reaction vessel. The pH of each solution was adjusted to exactly 6.50 by the addition of an appropriate volume of 1.0 molar sodium hydroxide solution. […]
pH 6.50 tris-maleate buffer solution (containing 5 mM calcium chloride and 150 mM sodium chloride) pH 6.50 tris-maleate buffer solution+15 mM ox bile pH 6.50 tris-maleate buffer solution+15 mM ox bile+0.5% hydrophilic surfactant (Cremophor RH40) pH 6.50 tris-maleate buffer solution+15 mM ox bile+medium chain lipolytic products viz 53% by weight of caprylic acid-monocaprylate (2:1 molar ratio) and 47% by weight of capric acid-monocaprate (2:1 molar ratio) […]
pH 6.50 tris maleate buffer solution+15 mM ox bile+0.5% long chain lipolytic products viz oleic acid and monoolein (2:1 molar ratio) The following procedures was performed in triplicate. 15 mls of each of the above aqueous media were added to approximately 20 mgs (excess) of progesterone in 21 ml glass vials. Each vial was whirlmixed and then maintained at 37° C. in an ultrasonic bath for 120 minutes. After 60 and 120 minutes, 3 ml of each solution were extracted for progesterone solubility determination by HPLC, using the following standard procedure:
Each sample is filtered through a 13 mm 0.2 μm PVDF syringe filter (supplied by Whatman®). The first 1.5 ml of filtrate is discarded. 0.8 ml of the remaining filtrate is combined with 0.8 ml of acetonitrile (the mobile phase) in an amber glass vial. The vial is then hermetically sealed and shaken by hand and then analysed.

[2] = Aqueous solubility of hydrophobic drugs in simulated intestinal fluid with bile and lipolytic products; format: physicochemical; conditions: pH 6.5
Experimental: As stated above, the aqueous solubilities of hydrophobic drugs can be increased by incorporation into mixed micelles, formed by bile salts and lipolytic products of triglyceride oil digestion.
An aqueous medium was prepared to simulate the intestinal environment using the following components:
100 mls pH 6.5 Tris-maleate buffer solution containing:
The medium was prepared as described in the in vitro test procedure described above. To this simulated intestinal fluid a series of different components were added to evaluate the enhancement of the aqueous solubility of a range of hydrophobic drugs. The components which were added were:
Experiment (i) Nothing (control experiment)
15 mM crude ox gallbladder bile
15 mM crude ox gallbladder bile +
500 mg of medium chain lipolytic
products (137 mg capric acid, 98 mg
glyceryl monocaprate, 151 mg
caprylic acid and 114 mg glyceryl
500 mg of long chain lipolytic
products (307 mg oleic acid and
193 mg glyceryl monooleate). […]
Then 100 mg of drug, in powder form, was added to the reaction medium, the pH was adjusted to 6.5 and the medium was mixed for 21/2 hours. At this time a sample was taken from the vessel, filtered through a 0.2 micron filter and the quantity of drug in solution in the simulated intestinal fluid was determined by a specific HPLC method.

Pancreatic lipase = experiment: In vitro lipolysis test (pH-stat titration) of fractionated coconut oil (FCO) with hydrophilic and lipophilic surfactants; format: biochemical; conditions: FCO with Cremophor RH40 and lipophilic surfactant; FIG. 2
Excerpt: In Vitro Test for Determining the Suitability of Hydrophilic and Lipophilic Surfactants
Pancreatic lipase in the presence of colipase catalyses the lipolysis (also termed hydrolysis or de-esterification) of emulsified oils, a process that results in the production of fatty acids. The rate of fatty acid generation, and thus a measure of the rate of lipolysis, can be followed via continuous titration with a pH-stat as described below.
The pH-stat should comprise, for example, a pH-meter, an autoburette and an autotitration unit. These instruments can be obtained from Radiometer A/S, Copenhagen, Denmark as product numbers PHM82, ABU80 and TTT80, respectively.
The reaction should be performed in a glass thermostatted vessel maintained at 37.5±0.5° C. This vessel should have an internal diameter of approximately 7.5 cm and a height of approximately 7.0 cm. During an experiment the reaction vessel should be placed beneath the titration assembly unit so that the tips of the pH-electrodes and the stirrer are all at least 1 cm beneath the liquid level. […]
At time=30 minutes, titrate the pH up to precisely 6.50 (e.g. using 1.0M NaOH using the autotitrator). Record the volume of titrant dispensed, then re-zero the titrant display reading on the autotitrator. […]

[3] = Buffer + 15 mM ox bile + 0.5% MCLPs

Further increase in solubility with long chain lipolytic products ([1]; 0.5% long chain lipolytic products, vs bile salts): approximately 3 fold | Further increase in solubility with medium chain lipolytic products ([1]; 0.5% medium chain lipolytic products, vs bile salts): approximately 3 fold | solubility at 1 h ([1]; Buffer + 15 mM bile): 46.6 ± 0.47 µg/mL | solubility at 2 h ([1]; Buffer + 15 mM bile): 45.5 ± 1.08 µg/mL | solubility at 1 h ([1]; Buffer + 15 mM ox bile + 0.5% LCLPs): 153 ± 6.17 µg/mL | solubility at 1 h [1, 3]: 136 ± 11 µg/mL | solubility at 2 h [1, 3]: 142 ± 6.31 µg/mL | solubility at 1 h ([1]; aqueous buffer, Buffer alone): 10.1 ± 0.25 µg/mL (≈ 32.1 µM) | solubility at 2 h ([1]; aqueous buffer, Buffer alone): 9.47 ± 1.16 µg/mL (≈ 30.1 µM) | Increase in solubility in bile salts compared to buffer alone ([1]; bile salts vs buffer alone): approximately 4.5 fold
SMILES: CC(=O)[C@H]1CC[C@H]2[C@@H]3CCC4=CC(=O)CC[C@]4(C)[C@H]3CC[C@]12C [Progesterone, progesterone]

Buffer solubility [2]: below the detection limit of assay
SMILES: CC(C)(Sc1cc(C(C)(C)C)c(O)c(C(C)(C)C)c1)Sc1cc(C(C)(C)C)c(O)c(C(C)(C)C)c1 [Probucol, probucol]

SMILES: CCCCCCCC/C=C\CCCCCCCC(=O)O [oleic acid]
Ability to overcome inhibitory effects of Cremophor RH40 on rate of FCO lipolysis (Pancreatic lipase): capable of overcoming the inhibitory effects

— patent US6096338A, “Delivery systems for hydrophobic drugs” (R. P. Scherer Corporation, priority 1994, dated 2000)
